Experimental data as given in ChEMBL document CHEMBL1275260, “N-acetylcysteine-mediated modulation of bacterial antibiotic susceptibility” (2010).
≈ marks a conversion by molar mass, not a printed value. Calls of active or inactive are those of the source. The calls are words filed in the database; no cut-off is given here.

Tests used:
Escherichia coli [1] = experiment: Antibacterial activity against Escherichia coli DH5alpha in presence of 10 mM N-Acetylcysteine; type: functional; settings: DH5[alpha]
Escherichia coli [2] = experiment: Antibacterial activity against Escherichia coli DH5alpha; type: functional; settings: DH5[alpha]
Escherichia coli [3] = experiment: Antibacterial activity against Escherichia coli W3110; type: functional; settings: K-12 substr. W3110
Escherichia coli [4] = experiment: Antibacterial activity against Escherichia coli MG1655 in presence of 10 mM N-Acetylcysteine; type: functional
Escherichia coli [5] = experiment: Antibacterial activity against Escherichia coli MG1655; type: functional
Pseudomonas aeruginosa [6] = experiment: Antibacterial activity against Pseudomonas aeruginosa NCIM 5029; type: functional
Pseudomonas aeruginosa [7] = experiment: Antibacterial activity against Pseudomonas aeruginosa NCIM 5029 in presence of 10 mM N-Acetylcysteine; type: functional
Klebsiella aerogenes [8] = experiment: Antibacterial activity against Klebsiella aerogenes NCIM 2281; type: functional
Klebsiella aerogenes [9] = experiment: Antibacterial activity against Klebsiella aerogenes NCIM 2281 in presence of 10 mM N-Acetylcysteine; type: functional
Klebsiella pneumoniae = experiment: Antibacterial activity against Klebsiella pneumoniae NCIM 2883 assessed as growth inhibition in presence of 10 mM N-Acetylcysteine; type: functional, organism-based
Escherichia coli [10] = experiment: Antibacterial activity against Escherichia coli W3110 in presence of 10 mM N-Acetylcysteine; type: functional; settings: K-12 substr. W3110

Row | SMILES | MIC (Escherichia coli [1]) [µg/mL] | MIC (Escherichia coli [2]) [µg/mL] | MIC (Escherichia coli [3]) [µg/mL] | MIC (Escherichia coli [4]) [µg/mL] | MIC (Escherichia coli [5]) [µg/mL] | MIC (Pseudomonas aeruginosa [6]) [µg/mL] | MIC (Pseudomonas aeruginosa [7]) [µg/mL] | MIC (Klebsiella aerogenes [8]) [µg/mL] | MIC (Klebsiella aerogenes [9]) [µg/mL] | Activity (Klebsiella pneumoniae) | MIC (Escherichia coli [10]) [µg/mL]
1 | CC1(C)S[C@@H]2[C@H](NC(=O)[C@H](N)c3ccccc3)C(=O)N2[C@H]1C(=O)O [AMPICILLIN] | 4 | 4 (≈ 11.4 µM) | 8 (≈ 22.9 µM) | 1 | 4 (≈ 11.4 µM) | 1020 (≈ 2930 µM) | 128 | 32 (≈ 91.6 µM) | 32 | Active | –
2 | O=C(N[C@H](CO)[C@H](O)c1ccc([N+](=O)[O-])cc1)C(Cl)Cl [CHLORAMPHENICOL] | 2 | 2 (≈ 6.19 µM) | 1 (≈ 3.09 µM) | 4 | 4 (≈ 12.4 µM) | 128 (≈ 396 µM) | 128 | 1 (≈ 3.09 µM) | 1 | Active | 1
3 | O=C(O)c1cn(C2CC2)c2cc(N3CCNCC3)c(F)cc2c1=O [CIPROFLOXACIN] | – | – | – | 0.512 | – | 1.02 (≈ 3.09 µM) | 2.05 | 0.016 (≈ 0.0483 µM) | 0.512 | Active | 0.064
4 | CC[C@H]1OC(=O)[C@H](C)[C@@H](O[C@H]2C[C@@](C)(OC)[C@@H](O)[C@H](C)O2)[C@H](C)[C@@H](O[C@@H]2O[C@H](C)C[C@H](N(C)C)[C@H]2O)[C@](C)(O)C[C@@H](C)C(=O)[C@H](C)[C@@H](O)[C@]1(C)O [ERYTHROMYCIN] | 16 | 16 (≈ 21.8 µM) | 4 (≈ 5.45 µM) | 1020 | 32 (≈ 43.6 µM) | 256 (≈ 349 µM) | 1020 | 32 (≈ 43.6 µM) | 1020 | Active | 512
5 | NC[C@H]1O[C@H](O[C@H]2[C@H](O)[C@@H](O[C@H]3O[C@H](CO)[C@@H](O)[C@H](N)[C@H]3O)[C@H](N)C[C@@H]2N)[C@H](O)[C@@H](O)[C@@H]1O [KANAMYCIN] | 0.5 | 0.5 (≈ 1.03 µM) | 1 (≈ 2.06 µM) | 32 | 1 (≈ 2.06 µM) | 64 (≈ 132 µM) | 256 | 1 (≈ 2.06 µM) | 16 | Active | 16
6 | CC1COc2c(N3CCN(C)CC3)c(F)cc3c(=O)c(C(=O)O)cn1c23 (stereo not given) [OFLOXACIN] | – | – | – | 1.02 | 0.032 (≈ 0.0886 µM) | 0.256 (≈ 0.708 µM) | 2.05 | 0.064 (≈ 0.177 µM) | 0.512 | Active | 0.032
7 | CC1(C)S[C@@H]2[C@H](NC(=O)Cc3ccccc3)C(=O)N2[C@H]1C(=O)O [PENICILLIN G] | – | – | 64 (≈ 191 µM) | 64 | 64 (≈ 191 µM) | > 4100 | 2050 | 64 (≈ 191 µM) | 64 | Active | 64
8 | CN[C@@H]1[C@H](O)[C@H](NC)[C@H]2O[C@@]3(O)C(=O)C[C@@H](C)O[C@H]3O[C@@H]2[C@H]1O [SPECTINOMYCIN] | 4 | 4 (≈ 12 µM) | 6 (≈ 18.1 µM) | 256 | 8 (≈ 24.1 µM) | 256 (≈ 770 µM) | 512 | 8 (≈ 24.1 µM) | 128 | Active | 128
9 | CN[C@@H]1[C@H](O[C@H]2[C@H](O[C@H]3[C@H](O)[C@@H](O)[C@H](N=C(N)N)[C@@H](O)[C@@H]3N=C(N)N)O[C@@H](C)[C@]2(O)C=O)O[C@@H](CO)[C@H](O)[C@H]1O [STREPTOMYCIN] | 1 | 1 (≈ 1.72 µM) | 2 (≈ 3.44 µM) | 32 | 2 (≈ 3.44 µM) | 8 (≈ 13.8 µM) | 64 | 2 (≈ 3.44 µM) | 16 | Active | 16
10 | CN(C)[C@@H]1C(O)=C(C(N)=O)C(=O)[C@@]2(O)C(O)=C3C(=O)c4c(O)cccc4[C@@](C)(O)[C@H]3C[C@@H]12 [TETRACYCLINE] | 1 | 1 (≈ 2.25 µM) | 0.062 (≈ 0.14 µM) | 1 | 1 (≈ 2.25 µM) | 8 (≈ 18 µM) | 8 | 1 (≈ 2.25 µM) | 1 | Active | 0.062
